Test results reported in paper PMC10122661 (2023).

Assays:
[1] = test system: riboSAM (full-length SAM-VI riboswitch, 95 nt) (RNA, riboswitch) GGGAAGAAAUAACAAUCAACGACGUAUCAUUGUGCCUCGCUUUCCGCGGGGCGAUAAGUCCUGAAGAAAGGGAUGAUAUGACAUAAGAACAUCGG …; experiment: ITC; conditions: 100 mM KCl, 10 mM MgCl2; 40 mM HEPES, pH 7.5, room temperature; 45 μM RNA
[2] = test system: 15N-16U24G-riboSAM (RNA, riboswitch) GGGAAGAAAUAACAAUCAACGACGUAUCAUUGUGCCUCGCUUUCCGCGGGGCGAUAAGUCCUGAAGAAAGGGAUGAUAUGACAUAAGAACAUCGG; experiment: 1H15N-HSQC NMR; conditions: 25 mM K2HPO4, 50 mM KCl, 2 mM MgCl2; pH 6.5, 25 or 37 °C; 0.5 mM RNA, 0.5 mM SAM
[3] = test system: 15N-16U24G-riboSAM hybridized with 21 nt-DNA (DNA:RNA, riboswitch) GGGAAGAAAUAACAAUCAACGACGUAUCAUUGUGCCUCGCUUUCCGCGGGGCGAUAAGUCCUGAAGAAAGGGAUGAUAUGACAUAAGAACAUCGG/CCGATGTTCTTATGTCATATC; experiment: 1H15N-HSQC NMR; conditions: 25 mM K2HPO4, 50 mM KCl, 2 mM MgCl2; pH 6.5; 0.5 mM SAM, 0.5 mM RNA; 3' end blocked by 21-nt DNA
[4] = test system: 15N-25U32G-riboSAM hybridized with 19 nt-DNA (DNA:RNA, riboswitch) GGGAAGAAAUAACAAUCAACGACGUAUCAUUGUGCCUCGCUUUCCGCGGGGCGAUAAGUCCUGAAGAAAGGGAUGAUAUGACAUAAGAACAUCGG/CCGATGTTCTTATGTCATA; experiment: 1H15N-HSQC NMR; conditions: 25 mM K2HPO4, 50 mM KCl, 2 mM MgCl2; pH 6.5; 3' end blocked by 19-nt DNA
[5] = test system: 2AP-riboSAM (RNA, riboswitch, 2-aminopurine at 59 (replaces U59)) GGGAAGAAAUAACAAUCAACGACGUAUCAUUGUGCCUCGCUUUCCGCGGGGCGAUAAGACCUGAAGAAAGGGAUGAUAUGACAUAAGAACAUCGG; experiment: stopped-flow 2AP fluorescence; conditions: 100 mM KCl, 2 mM MgCl2; 10 mM HEPES, pH 7.5, room temperature; 0.5 μM RNA
[6] = test system: 2AP-mutant (riboSAM mutant, P0 helix disrupted) (RNA, riboswitch, 2-aminopurine at 59 (replaces U59)) GGGAAGAAAUAUGCCUCAACGACGUAUCAUUGUGCCUCGCUUUCCGCGGGGCGAUAAGACCUGAAGAAAGGGAUGAUAUGACAUAAGAACAUCGG; experiment: stopped-flow 2AP fluorescence; conditions: 100 mM KCl, 2 mM MgCl2; 10 mM HEPES, pH 7.5, room temperature; 0.5 μM RNA
[7] = test system: 2AP-riboSAM (RNA, riboswitch, 2-aminopurine at 59 (replaces U59)) GGGAAGAAAUAACAAUCAACGACGUAUCAUUGUGCCUCGCUUUCCGCGGGGCGAUAAGACCUGAAGAAAGGGAUGAUAUGACAUAAGAACAUCGG; experiment: steady-state 2AP fluorescence titration; conditions: 100 mM KCl, 2 mM MgCl2; 10 mM HEPES, pH 7.5, room temperature; 0.5 μM RNA; apparent
[8] = test system: 2AP-mutant (riboSAM mutant, P0 helix disrupted) (RNA, riboswitch, 2-aminopurine at 59 (replaces U59)) GGGAAGAAAUAUGCCUCAACGACGUAUCAUUGUGCCUCGCUUUCCGCGGGGCGAUAAGACCUGAAGAAAGGGAUGAUAUGACAUAAGAACAUCGG; experiment: steady-state 2AP fluorescence titration; conditions: 100 mM KCl, 2 mM MgCl2; 10 mM HEPES, pH 7.5, room temperature; 0.5 μM RNA; apparent

- Kd [1]: 1.03 ± 0.23 µM
- binding [2]: yes
- binding [3]: no
- binding [4]: yes
- Kon [5]: 5690 ± 83 M⁻¹ s⁻¹
- Kon [6]: 4480 ± 51 M⁻¹ s⁻¹
- Kd [7]: 9.650 ± 0.065 µM
- Kd [8]: ~ 11.861 ± 0.341 μM
SMILES: C[S+](CC[C@H](N)C(=O)O)C[C@H]1O[C@@H](n2cnc3c(N)ncnc32)[C@H](O)[C@@H]1O (some centres unmarked)
